As usually defined, the IC50 is the concentration at which inhibition is half-maximal.

The record followed here is US20260184687A1, “DIHYDROINDENE DERIVATIVES AS MALT1 INHIBITORS” (C4X Discovery Limited, priority 2022, published 2026).

Experiment [1] has as its system IL-2 release from stimulated Jurkat cells. As to the kind of experiment: Human IL-2 Release Phenotypic Assay (Assay 3). Type of experiment: cell-based. Particulars: Jurkat cells (clone E6-1), 200 ng/mL PMA + 300 ng/mL ionomycin, IL-2 by ELISA. An outline of the steps:
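IC50 values were fitted by 4-parameter non-linear regression to IL-2 release from Jurkat E6-1 cells. Those cells were stimulated for 48 h with PMA (200 ng/mL) plus ionomycin (300 ng/mL) after a 30-min compound pre-incubation at half-log doses in 0.5% DMSO. Cells had been plated at 50 000/well overnight at 37° C.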
In general terms: ELISA stands for enzyme-linked immunosorbent assay.

A further experiment deals with T1, FL hMALT1 enzyme (Homo sapiens, UniProt Q9UDY8).
T1 sequence (Q9UDY8 1-824): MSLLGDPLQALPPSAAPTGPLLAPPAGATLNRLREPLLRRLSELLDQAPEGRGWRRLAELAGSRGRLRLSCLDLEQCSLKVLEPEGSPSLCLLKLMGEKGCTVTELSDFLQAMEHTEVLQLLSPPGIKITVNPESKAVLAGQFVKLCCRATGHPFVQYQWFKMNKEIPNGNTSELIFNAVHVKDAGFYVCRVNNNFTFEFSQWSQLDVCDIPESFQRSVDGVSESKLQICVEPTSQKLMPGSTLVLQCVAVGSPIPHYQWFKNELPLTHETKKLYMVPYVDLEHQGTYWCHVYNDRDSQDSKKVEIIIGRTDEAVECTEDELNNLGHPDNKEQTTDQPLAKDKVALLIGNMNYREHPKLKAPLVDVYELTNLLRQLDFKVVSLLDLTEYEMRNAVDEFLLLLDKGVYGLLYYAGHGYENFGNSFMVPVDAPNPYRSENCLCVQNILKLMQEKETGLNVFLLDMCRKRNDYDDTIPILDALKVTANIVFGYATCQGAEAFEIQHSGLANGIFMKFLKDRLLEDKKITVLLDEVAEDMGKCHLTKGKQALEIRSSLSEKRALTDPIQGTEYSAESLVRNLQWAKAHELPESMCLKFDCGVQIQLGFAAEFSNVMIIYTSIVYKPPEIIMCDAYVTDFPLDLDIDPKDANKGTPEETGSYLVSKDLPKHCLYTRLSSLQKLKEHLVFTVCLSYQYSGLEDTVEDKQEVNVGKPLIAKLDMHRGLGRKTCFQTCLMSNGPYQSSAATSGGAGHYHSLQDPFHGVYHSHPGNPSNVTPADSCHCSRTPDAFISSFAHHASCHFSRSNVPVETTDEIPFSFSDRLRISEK
As to the kind of experiment: biochemical.

Regarding `CN(C(=O)C1CC2(CCC(=O)N2)C1)[C@@H](c1ccc(NC2Cc3ccc(Cl)c(Cl)c3C2)cn1)C(F)(F)F` (single isomer, unassigned) [Example 343], the values for the IC50 (in experiment [1] (48 hours); against FL hMALT1 enzyme) were 360 nM and 77 nM, respectively.

With `CNC(=O)N1CC(C(=O)N(C)[C@@H](c2ccc(NC3Cc4ccccc4C3(C)C)cn2)C(F)(F)F)C1` (single isomer, unassigned) [Example 228], the IC50 is 1000 nM in experiment [1] (48 hours) and 57 nM against FL hMALT1 enzyme.

As to `CN(C(=O)C1CCS(=O)(=O)CC1)[C@@H](c1ccc(NC2Cc3ccc(Cl)c(F)c3C2)cn1)C(F)(F)F` (single isomer, unassigned) [Example 277], the IC50 turned out to be 200 nM in experiment [1] (Homo sapiens, Jurkat, 48 h) and 43 nM at FL hMALT1 enzyme.

For `CN(C(=O)C1CCCNC1)[C@@H](c1ccc(NC2Cc3ccccc3C2(C)C)cn1)C(F)(F)F` (single isomer, unassigned) [Example 124], the IC50 worked out at 1290 nM in experiment [1] (48 hours) and 190 nM on FL hMALT1 enzyme.

As to `CC(=O)N[C@@H]1CC[C@H](C(=O)N(C)[C@@H](c2ccc(N[C@H]3Cc4ccccc4C3(C)C)cn2)C(F)(F)F)C1` [Example 187, (1,3-cis)-3-Acetamido-N—((S)-1-(5-(((S)-1,1-dimethyl-2,3-dihydro-1H-inden-2-yl)amino)pyridin-2-yl)-2,2,2-trifluoroethyl)-N-methylcyclobutane-1-carboxamide], the IC50 worked out at 450 nM in experiment [1] (Homo sapiens, Jurkat, 48 h) and 94 nM against FL hMALT1 enzyme.

Turning to `CN(C(=O)[C@@H]1CC(=O)N1)[C@@H](c1ccc(N[C@H]2Cc3ccccc3C2(C)C)cn1)C(F)(F)F` [Example 165, (S)—N—((S)-1-(5-(((S)-1,1-Dimethyl-2,3-dihydro-1H-inden-2-yl)amino)pyridin-2-yl)-2,2,2-trifluoroethyl)-N-methyl-4-oxoazetidine-2-carboxamide], the IC50 in experiment [1] (Homo sapiens, Jurkat, 48 h) is 450 nM; on FL hMALT1 enzyme, 87 nM.

Turning to `CN(C(=O)C1CNC(=O)O1)[C@@H](c1ccc(N[C@@H]2Cc3ccccc3C2(C)C)cn1)C(F)(F)F` (single isomer, unassigned) [Example 110], the results for the IC50 (in experiment [1] (48 hours); against FL hMALT1 enzyme) were 149 nM and 16 nM, respectively.

As to `CN(C(=O)C1CCNC(=O)C1)[C@@H](c1ccc(NC2Cc3ccccc3C2(C)C)cn1)C(F)(F)F` (single isomer, unassigned) [Example 117], the IC50 came to 2060 nM in experiment [1] (48 hours) and 240 nM on FL hMALT1 enzyme.

In the case of `CN(C(=O)C1CC2(CCC(=O)N2)C1)[C@@H](c1ccc(NC2Cc3ccccc3C2(C)C)cn1)C(F)(F)F` (single isomer, unassigned) [Example 230], the 50% inhibitory concentration (IC50) in experiment [1] (Homo sapiens, Jurkat, 48 h) was 340 nM; against FL hMALT1 enzyme it was 38 nM.

With `CN(C(=O)C1CCCNC1)[C@@H](c1ccc(NC2Cc3ccccc3C2(C)C)cn1)C(F)(F)F` (single isomer, unassigned) [Example 125], the IC50 stood at 330 nM in experiment [1] (48 hours) and 62 nM against FL hMALT1 enzyme.

In the case of `CN(C(=O)C1CCS(=O)(=O)C1)[C@@H](c1ccc(NC2Cc3ccc(Cl)c(Cl)c3C2)cn1)C(F)(F)F` (single isomer, unassigned) [Example 360], the IC50 in experiment [1] (48 hours) is 110 nM; on FL hMALT1 enzyme, 30 nM.

Take `CN(C(=O)C1CCS(=O)(=O)C1)[C@@H](c1ccc(NC2Cc3ccc(Cl)c(Cl)c3C2)cn1)C(F)(F)F` (single isomer, unassigned) [Example 358]: the half-inhibitory concentration (IC50) in experiment [1] (48 hours) was determined as 250 nM; against FL hMALT1 enzyme, 55 nM.

As to `CN(C(=O)[C@@H]1CNC(=O)C1)[C@@H](c1ccc(NC2Cc3ccc(Cl)c(C4CC4)c3C2)cn1)C(F)(F)F` (single isomer, unassigned) [Example 328], the IC50 in experiment [1] (Homo sapiens, Jurkat, 48 h) amounted to 240 nM; against FL hMALT1 enzyme, 18 nM.

Turning to `CN(C(=O)C1CCS(=O)(=O)CC1)[C@@H](c1ccc(NC2Cc3ccc(F)c(F)c3C2)cn1)C(F)(F)F` (single isomer, unassigned) [Example 262], the IC50 in experiment [1] (48 hours) amounted to 7700 nM; on FL hMALT1 enzyme, 2680 nM.

Consider `CN1CCC(C(=O)N(C)[C@@H](c2ccc(NC3Cc4ccccc4C3(C)C)nc2)C(F)(F)F)CC1` (single isomer, unassigned) [Example 144], for which the IC50 was found to be 2630 nM in experiment [1] (Homo sapiens, Jurkat, 48 h) and 210 nM against FL hMALT1 enzyme.

For `CN(C(=O)[C@@H]1CNC(=O)C1)[C@@H](c1ccc(NC2Cc3ccc(Cl)c(Cl)c3C2)cn1)C(F)(F)F` (single isomer, unassigned) [Example 319], the IC50 came to 66 nM in experiment [1] (Homo sapiens, Jurkat, 48 h) and 24 nM against FL hMALT1 enzyme.

With `CNC(=O)C12CC(C(=O)N(C)[C@@H](c3ccc(N[C@H]4Cc5ccccc5C4(C)C)cn3)C(F)(F)F)(C1)C2` [Example 185, N^1—((S)-1-(5-(((S)-1,1-Dimethyl-2,3-dihydro-1H-inden-2-yl)amino)pyridin-2-yl)-2,2,2-trifluoroethyl)-N^1,N^3-dimethylbicyclo[1.1.1]pentane-1,3-dicarboxamide], the IC50 in experiment [1] (Homo sapiens, Jurkat, 48 h) stood at 300 nM; against FL hMALT1 enzyme it was 42 nM.

Take `CN(C(=O)[C@H]1CNC(=O)C1)[C@@H](c1ccc(NC2Cc3ccc(Cl)c(Cl)c3C2)nc1)C(F)(F)F` (single isomer, unassigned) [Example 347]: the IC50 turned out to be 41 nM in experiment [1] (Homo sapiens, Jurkat, 48 h) and 16 nM against FL hMALT1 enzyme.

Turning to `CC(=O)N1CCC[C@H]1C(=O)N(C)[C@@H](c1ccc(N[C@H]2Cc3ccccc3C2(C)C)cn1)C(F)(F)F` (single isomer, unassigned) [Example 194], the IC50 was 630 nM in experiment [1] (Homo sapiens, Jurkat, 48 h) and 53 nM against FL hMALT1 enzyme.

Turning to `CNC(=O)N1CC(C(=O)N(C)[C@@H](c2ccc(NC3Cc4ccc(Cl)c(Cl)c4C3)cn2)C(F)(F)F)C1` (single isomer, unassigned) [Example 335], the IC50 in experiment [1] (Homo sapiens, Jurkat, 48 h) worked out at 42 nM; on FL hMALT1 enzyme, 14 nM.

Consider `CN(C(=O)[C@H]1C[C@]2(CCN2C)C1)[C@@H](c1ccc(NC2Cc3ccccc3C2(C)C)cn1)C(F)(F)F` (single isomer, unassigned) [Example 159], for which the IC50 in experiment [1] (Homo sapiens, Jurkat, 48 h) was determined as 1160 nM; against FL hMALT1 enzyme, 140 nM.

As to `CN(C(=O)[C@H]1C[C@@]2(CCN2C)C1)[C@@H](c1ccc(NC2Cc3ccccc3C2(C)C)cn1)C(F)(F)F` (single isomer, unassigned) [Example 157], the values for the IC50 (in experiment [1] (48 hours); against FL hMALT1 enzyme) were 770 nM and 64 nM, respectively.

Take `CN(C(=O)N1CCS(=O)(=O)CC1)[C@@H](c1ccc(NC2Cc3ccccc3C2(C)C)cn1)C(F)(F)F` (single isomer, unassigned) [Example 142]: the IC50 in experiment [1] (Homo sapiens, Jurkat, 48 h) worked out at 1790 nM; at FL hMALT1 enzyme, 200 nM.

With `CC(=O)N1CC(C(=O)N(C)[C@@H](c2ccc(NC3Cc4ccc(Cl)c(Cl)c4C3)cn2)C(F)(F)F)C1` (single isomer, unassigned) [Example 377], the IC50 in experiment [1] (Homo sapiens, Jurkat, 48 h) worked out at 130 nM; against FL hMALT1 enzyme it was 40 nM.

As for `CN(C(=O)[C@H]1C[C@H](N(C)C)C1)[C@@H](c1ccc(NC2Cc3ccccc3C2(C)C)nc1)C(F)(F)F` (single isomer, unassigned) [Example 115], the values for the IC50 (in experiment [1] (48 hours); at FL hMALT1 enzyme) were 510 nM and 240 nM, respectively.

On to `CN(C(=O)C1CC2(CNC(=O)OC2)C1)[C@@H](c1ccc(NC2Cc3ccccc3C2(C)C)nc1)C(F)(F)F` (single isomer, unassigned) [Example 175], for which the IC50 stood at 810 nM in experiment [1] (48 hours) and 54 nM against FL hMALT1 enzyme.

As for `CN1CC(C(=O)N(C)[C@@H](c2ccc(N[C@H]3Cc4ccccc4C3(C)C)cn2)C(F)(F)F)CCC1=O` (single isomer, unassigned) [Example 253], the IC50 in experiment [1] (48 hours) was determined as 420 nM; against FL hMALT1 enzyme, 66 nM.

Regarding `CN(C(=O)C1CNC(=O)CO1)[C@@H](c1ccc(NC2Cc3ccccc3C2(C)C)cn1)C(F)(F)F` (single isomer, unassigned) [Example 136], the values for the IC50 (in experiment [1] (48 hours); against FL hMALT1 enzyme) were 310 nM and 36 nM, respectively.

In the case of `CN1CC(C(=O)N(C)[C@@H](c2ccc(N[C@H]3Cc4ccccc4C3(C)C)cn2)C(F)(F)F)CCC1=O` (single isomer, unassigned) [Example 252], the half-inhibitory concentration (IC50) in experiment [1] (Homo sapiens, Jurkat, 48 h) is 590 nM; at FL hMALT1 enzyme it was 71 nM.

In the case of `CN(C(=O)C12CC(NS(C)(=O)=O)(C1)C2)[C@@H](c1ccc(NC2Cc3ccc(Cl)c(Cl)c3C2)cn1)C(F)(F)F` (single isomer, unassigned) [Example 323], the IC50 in experiment [1] (Homo sapiens, Jurkat, 48 h) stood at 100 nM; against FL hMALT1 enzyme it was 14 nM.

With `CN(C(=O)[C@H]1CNC(=O)C1)[C@@H](c1ccc(NC2Cc3ccc(Cl)c(F)c3C2)nc1)C(F)(F)F` (single isomer, unassigned) [Example 339], the IC50 in experiment [1] (Homo sapiens, Jurkat, 48 h) came to 66 nM; on FL hMALT1 enzyme, 24 nM.

Consider `CN(C(=O)C1CCC(=O)NC1)[C@@H](c1ccc(NC2Cc3ccccc3C2(C)C)cn1)C(F)(F)F` (single isomer, unassigned) [Example 105], for which the IC50 in experiment [1] (48 hours) was found to be 230 nM; at FL hMALT1 enzyme it was 36 nM.
